Read-outs that look alike come from different tables or passages of the source.
Columns and labels:
[1] = target: DP4 (HLA-DPA1*01:03/DPB1*04:01), DP4.1 (Homo sapiens, UniProt P04440+P20036); assay: Fluorescence polarization competition binding assay, DP4.1; conditions: FP competition; Alexa488 oxytocinase probe 25 nM; DP4.1-Clip 250 nM; HLA-DM 500 nM; 37 °C, 24 h
[2] = target: DRB5*01:01 (DR2a) (Homo sapiens, UniProt P01903+Q30154); assay: Fluorescence polarization competition binding assay, DR2a; conditions: FP competition; Alexa488 influenza hemagglutinin probe 25 nM; DR2a-CLIP 250 nM; HLA-DM 500 nM; 37 °C, 24 h
[3] = target: DRB1*15:01 (DR2b) (Homo sapiens, UniProt P01903+P01911); assay: Fluorescence polarization competition binding assay, DR2b; conditions: FP competition; Alexa488 MBP probe 25 nM; DR2b-CLIP 500 nM; HLA-DM 500 nM; 37 °C, 24 h
[4] = tested on: relevant alleles (DP4.1, DR2b, DR2a); assay: Fluorescence polarization competition binding assay, relevant alleles; parameters: species or system human; conditions: six representative HLA-DR peptides
[5] = tested on: peptide-expanded T cells from partially HLA-matched donors; assay: IFN-γ ELISpot, single-peptide in vitro expanded T cells with single allele APC; assay type: cell-based, human; conditions: for T cell recognition, IFN-γ ELISpot: expanded T cells from HLA-matched donors; for minimal activating peptide concentration: dose range 10 – 10^−7 μg/mL
[6] = tested on: single-peptide-expanded T cell lines; assay: Intracellular cytokine staining (ICS) of single-peptide-expanded T cell lines; assay type: cell-based, human; conditions: single allele APC, 1 μg/mL
[7] = tested on: T cell lines expanded in vitro with OC43 or SARS-CoV-2 peptides; assay: IFN-γ ELISpot cross-reactivity between OC43 peptides and homologs of other coronaviruses; conditions: Table 1
[8] = target: soluble DP4 (HLA-DPA1*01:03/DPB1*04:01) (human)
[9] = target: soluble recombinant HLA-DR DRB1*15:01 (DR2b) (human); assay: fluorescence polarisation
[10] = target: soluble recombinant HLA-DR DRB5*01:01 (DR2a) (human); assay: fluorescence polarisation
[11] = target: soluble recombinant HLA-DR DRB1*15:01 (DR2b) (human)
[12] = target: soluble recombinant HLA-DR DRB5*01:01 (DR2a) (human)

## APYGLYFIHFSYVPTK [Peptide P6, OC43 spike 1140–1155, naturally processed peptide eluted from HLA-DP]
[1]
  IC50: ≥ 10000 nM

## DFINGIFAKVKNTKVIK [Peptide P12, OC43 spike 98–114, naturally processed peptide eluted from HLA-DR]
[2]
  IC50: < 1000 nM
[3]
  IC50: ≥ 1000 nM
[4]
  binding to DR2a / DR2b allotypes: bound exclusively to DR2a

## EGQQIIFYEGVNFTP [Peptide P8, OC43 hemagglutinin esterase 93–107, naturally processed peptide eluted from HLA-DR]
[5]
  T cell recognition, IFN-γ ELISpot: not recognized
[6]
  IFN-γ response in ICS: did not produce a response

## GAFFFGSRLELAKVQN [Peptide P2, OC43 nucleoprotein 321–336, naturally processed peptide eluted from HLA-DP]
[5]; expanded cells from donor 61
  minimal activating peptide concentration: 10^−6 μg/mL
[1]
  IC50: ≥ 10000 nM

## ITTGYRFTNFEPFT [Peptide P5, OC43 spike 760–773, naturally processed peptide eluted from HLA-DP]
[1]
  IC50: < 1000 nM

## LFYTQVYKNMAVYRS [Peptide P9, OC43 hemagglutinin esterase 128–142, naturally processed peptide eluted from HLA-DR]
[5]; donor 40
  minimal activating peptide concentration: 1 µg/mL
[2]
  IC50: < 1000 nM
[4]
  binding to DR2a / DR2b allotypes: both allotypes

## LSDFINGIFAKVKNTK [Peptide P3, OC43 spike 97–111, naturally processed peptide eluted from HLA-DP]
[5]; expanded cells from donor 61
  minimal activating peptide concentration: 10^−7 μg/mL

## LTALNAYVSQQLSDS [Peptide P11]
[5]; donor 07
  minimal activating peptide concentration: 1 µg/mL
[7]
  SARS-CoV-2 cross-reactivity: yes

## NRGRQFYEFYNDVKPP [Peptide P14, OC43 envelope 62–78, naturally processed peptide eluted from HLA-DP]
[5]
  T cell recognition, IFN-γ ELISpot: not recognized
[6]
  IFN-γ response in ICS: did not produce a response

## OC43 envelope protein peptide 62–78 (P14)
[8]
  IC50: < 10000 nM

## OC43 hemagglutinin esterase peptide 93–107 (P8)
[9]
  IC50: < 1000 nM

## OC43 hemagglutinin esterase peptide 128–142 (P9)
[10]
  IC50: < 1000 nM
[9]
  IC50: < 1000 nM

## OC43 nucleoprotein peptide 54–68 (P10)
[11]
  IC50: < 1000 nM

## OC43 nucleoprotein peptide 321–336 (P2)
[8]
  IC50: > 10000 nM

## OC43 spike peptide 97–111 (P3)
[8]
  IC50: < 10000 nM

## OC43 spike peptide 98–114 (P12)
[12]
  IC50: < 1000 nM
[11]
  IC50: > 1000 nM

## OC43 spike peptide 271–286 (P13)
[11]
  IC50: < 1000 nM

## OC43 spike peptide 760–773 (P5)
[8]
  IC50: < 1000 nM

## OC43 spike peptide 903–917 (P4)
[8]
  IC50: < 10000 nM

## OC43 spike peptide 1085–1099 (P11)
[11]
  IC50: < 1000 nM

## OC43 spike peptide 1140–1155 (P6)
[8]
  IC50: > 10000 nM

## OC43 spike peptide 1147–1164 (P7)
[8]
  IC50: < 10000 nM

## PSGGNVVPYYSWFSG [Peptide P10, OC43 nucleoprotein 54–68, naturally processed peptide eluted from HLA-DR]
[5]; donors 18, 22, and 40
  minimal activating peptide concentration: 10^−5 μg/mL
[5]; responding CD4 T cells, discussion
  minimal peptide concentrations: about 10 pg/mL

## SRQYLLAFNQDGIIFN [Peptide P13, OC43 spike 271–286, naturally processed peptide eluted from HLA-DR]
[5]
  T cell recognition, IFN-γ ELISpot: not recognized
[3]
  IC50: < 1000 nM
[6]
  IFN-γ response in ICS: did not produce a response

## YLAISNELLLTVPTK [Peptide P1, OC43 hemagglutinin esterase 259–273, naturally processed peptide eluted from HLA-DP]
[1]
  IC50: < 1000 nM

— paper doi:10.1101/2022.12.01.518643 (bioRxiv, 2022)
